Assay results reported in PubChem BioAssay (NCI).
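Five concentrations, 48 hours, 96-well plates. At the TGI there is no net growth.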

Legend:
Assay in all cases: NCI tumour cell line growth inhibition, 48 h
786-0 renal = test system: 786-0 renal
A549 NSCLC = test system: A549 NSCLC
ACHN renal = test system: ACHN renal
CCRF-CEM leukemia = test system: CCRF-CEM leukemia
COLO 205 colon = test system: COLO 205 colon
DLD-1 colon = test system: DLD-1 colon
DMS 114 small cell lung = test system: DMS 114 small cell lung
EKVX NSCLC = test system: EKVX NSCLC
HCC-2998 colon = test system: HCC-2998 colon
HCT-15 colon = test system: HCT-15 colon
HL-60(TB) leukemia = test system: HL-60(TB) leukemia
HOP-18 NSCLC = test system: HOP-18 NSCLC
HOP-92 NSCLC = test system: HOP-92 NSCLC
K-562 leukemia = test system: K-562 leukemia
KM12 colon = test system: KM12 colon
M14 melanoma = test system: M14 melanoma
M19-MEL melanoma = test system: M19-MEL melanoma
MALME-3M melanoma = test system: MALME-3M melanoma
MOLT-4 leukemia = test system: MOLT-4 leukemia
NCI-H226 lung = test system: NCI-H226 lung
NCI-H522 lung = test system: NCI-H522 lung
OVCAR-3 ovarian = test system: OVCAR-3 ovarian
OVCAR-5 ovarian = test system: OVCAR-5 ovarian
RPMI-8226 leukemia = test system: RPMI-8226 leukemia
RXF 393 renal = test system: RXF 393 renal
RXF-631 renal = test system: RXF-631 renal
SF-268 CNS = test system: SF-268 CNS
SF-295 CNS = test system: SF-295 CNS
SF-539 CNS = test system: SF-539 CNS
SK-MEL-2 melanoma = test system: SK-MEL-2 melanoma
SK-MEL-28 melanoma = test system: SK-MEL-28 melanoma
SN12C renal = test system: SN12C renal
SNB-75 CNS = test system: SNB-75 CNS
SNB-78 CNS = test system: SNB-78 CNS
SR leukemia = test system: SR leukemia
SW-620 colon = test system: SW-620 colon
TK-10 renal = test system: TK-10 renal
U251 CNS = test system: U251 CNS
UACC-257 melanoma = test system: UACC-257 melanoma
UO-31 renal = test system: UO-31 renal
XF 498 CNS = test system: XF 498 CNS
A498 renal = test system: A498 renal
CAKI-1 renal = test system: CAKI-1 renal
DMS 273 small cell lung = test system: DMS 273 small cell lung
HCT-116 colon = test system: HCT-116 colon
HOP-62 NSCLC = test system: HOP-62 NSCLC
HT29 colon = test system: HT29 colon
IGROV1 ovarian = test system: IGROV1 ovarian
KM20L2 colon = test system: KM20L2 colon
LOX IMVI melanoma = test system: LOX IMVI melanoma
LXFL 529 NSCLC = test system: LXFL 529 NSCLC
NCI-H23 lung = test system: NCI-H23 lung
NCI-H460 lung = test system: NCI-H460 lung
OVCAR-8 ovarian = test system: OVCAR-8 ovarian
SK-MEL-5 melanoma = test system: SK-MEL-5 melanoma
SK-OV-3 ovarian = test system: SK-OV-3 ovarian
SNB-19 CNS = test system: SNB-19 CNS
UACC-62 melanoma = test system: UACC-62 melanoma

CSc1ccc(/C=C2/C[N+](C)(C)C/C(=C/c3ccc(SC)cc3)C2=O)cc1
TGI (786-0 renal): 26.8 µM
TGI (A549 NSCLC): > 100 µM
TGI (ACHN renal): > 100 µM
TGI (CCRF-CEM leukemia): 31.5 µM
TGI (COLO 205 colon): 17.8 µM
TGI (DLD-1 colon): 22.8 µM
TGI (DMS 114 small cell lung): 21.1 µM
TGI (EKVX NSCLC): 35.1 µM
TGI (HCC-2998 colon): 34 µM
TGI (HCT-15 colon): > 100 µM
TGI (HL-60(TB) leukemia): 9.82 µM
TGI (HOP-18 NSCLC): 79.2 µM
TGI (HOP-92 NSCLC): 42.1 µM
TGI (K-562 leukemia): > 100 µM
TGI (KM12 colon): 15.9 µM
TGI (M14 melanoma): 28.8 µM
TGI (M19-MEL melanoma): 19.8 µM
TGI (MALME-3M melanoma): 27.5 µM
TGI (MOLT-4 leukemia): 67.4 µM
TGI (NCI-H226 lung): 72.5 µM
TGI (NCI-H522 lung): 21.3 µM
TGI (OVCAR-3 ovarian): 38.3 µM
TGI (OVCAR-5 ovarian): 44 µM
TGI (RPMI-8226 leukemia): 9.92 µM
TGI (RXF 393 renal): 31.6 µM
TGI (RXF-631 renal): > 100 µM
TGI (SF-268 CNS): 22.7 µM
TGI (SF-295 CNS): 65 µM
TGI (SF-539 CNS): 34 µM
TGI (SK-MEL-2 melanoma): 36.2 µM
TGI (SK-MEL-28 melanoma): 20.9 µM
TGI (SN12C renal): 21.2 µM
TGI (SNB-75 CNS): 62.4 µM
TGI (SNB-78 CNS): > 100 µM
TGI (SR leukemia): 71.7 µM
TGI (SW-620 colon): 28.1 µM
TGI (TK-10 renal): > 100 µM
TGI (U251 CNS): 7.92 µM
TGI (UACC-257 melanoma): 37.8 µM
TGI (UO-31 renal): > 100 µM
TGI (XF 498 CNS): 29.1 µM

Cc1ccc(NC(=O)C2C(=O)N(c3ccc(C)c(C)c3)C(=O)/C2=N/O)cc1C (configuration not stated)
TGI (786-0 renal): > 100 µM
TGI (A498 renal): > 100 µM
TGI (A549 NSCLC): > 100 µM
TGI (ACHN renal): > 100 µM
TGI (CAKI-1 renal): > 100 µM
TGI (CCRF-CEM leukemia): > 100 µM
TGI (COLO 205 colon): > 100 µM
TGI (DLD-1 colon): > 100 µM
TGI (DMS 114 small cell lung): > 100 µM
TGI (DMS 273 small cell lung): > 100 µM
TGI (EKVX NSCLC): > 100 µM
TGI (HCC-2998 colon): > 100 µM
TGI (HCT-116 colon): > 100 µM
TGI (HCT-15 colon): > 100 µM
TGI (HL-60(TB) leukemia): > 100 µM
TGI (HOP-18 NSCLC): > 100 µM
TGI (HOP-62 NSCLC): > 100 µM
TGI (HOP-92 NSCLC): > 100 µM
TGI (HT29 colon): > 100 µM
TGI (IGROV1 ovarian): > 100 µM
TGI (K-562 leukemia): > 100 µM
TGI (KM12 colon): > 100 µM
TGI (KM20L2 colon): > 100 µM
TGI (LOX IMVI melanoma): 38.3 µM
TGI (LXFL 529 NSCLC): > 100 µM
TGI (M14 melanoma): > 100 µM
TGI (MALME-3M melanoma): > 100 µM
TGI (MOLT-4 leukemia): > 100 µM
TGI (NCI-H226 lung): > 100 µM
TGI (NCI-H23 lung): > 100 µM
TGI (NCI-H460 lung): > 100 µM
TGI (NCI-H522 lung): > 100 µM
TGI (OVCAR-3 ovarian): > 100 µM
TGI (OVCAR-5 ovarian): > 100 µM
TGI (OVCAR-8 ovarian): > 100 µM
TGI (RPMI-8226 leukemia): > 100 µM
TGI (RXF 393 renal): > 100 µM
TGI (RXF-631 renal): > 100 µM
TGI (SF-268 CNS): > 100 µM
TGI (SF-295 CNS): > 100 µM
TGI (SF-539 CNS): > 100 µM
TGI (SK-MEL-2 melanoma): > 100 µM
TGI (SK-MEL-28 melanoma): > 100 µM
TGI (SK-MEL-5 melanoma): > 100 µM
TGI (SK-OV-3 ovarian): > 100 µM
TGI (SN12C renal): > 100 µM
TGI (SNB-19 CNS): > 100 µM
TGI (SNB-75 CNS): > 100 µM
TGI (SNB-78 CNS): > 100 µM
TGI (SW-620 colon): 37.2 µM
TGI (TK-10 renal): > 100 µM
TGI (U251 CNS): > 100 µM
TGI (UACC-257 melanoma): > 100 µM
TGI (UACC-62 melanoma): > 100 µM
TGI (UO-31 renal): > 100 µM
TGI (XF 498 CNS): > 100 µM
